In ChEMBL document CHEMBL1140512, “N-Alkylidenearylcarboxamides as new potent and selective CB(2) cannabinoid receptor agonists with good oral bioavailability” (Bioorg Med Chem Lett, 2007):
pEC50, pIC50: −log10 of the molar value.

Columns and labels:
Cannabinoid receptor 2 [1] = molecular target: T1, Cannabinoid receptor 2 (Homo sapiens, UniProt P34972); assay: Displacement of [3H]CP-55940 form human CB2 receptor expressed in CHO cells; assay type: cell-based
[2] = Metabolic stability in human liver microsomes assessed as parent compound remaining after 15 mins; assay type: ADME, Microsome; conditions: read-out: Stability
Cannabinoid receptor 2 [3] = molecular target: T1, Cannabinoid receptor 2; assay: Efficacy at human CB2 receptor expressed in CHO cells by [35S]GTP-gamma-S binding assay relative to CP-55940; assay type: functional, cell-based
[4] = Tmax in rat at 10 mg/kg, po; assay type: ADME, organism-based; set-up: dose 10 mg/kg, route oral; conditions: in vivo
[5] = Cmax in rat at 10 mg/kg, po; assay type: ADME, organism-based; set-up: dose 10 mg/kg, route oral; conditions: in vivo
[6] = AUC (0 to 24 hrs) in rat at 10 mg/kg, po; assay type: ADME, organism-based; set-up: time < 24 hr, dose 10 mg/kg, route oral; conditions: plasma
Cannabinoid receptor 2 [7] = molecular target: T1, Cannabinoid receptor 2; assay: Agonist activity at human CB2 receptor expressed in CHO cells by [35S]GTP-gamma-S binding assay; assay type: functional, cell-based
[8] = Half life in rat at 10 mg/kg, po; assay type: ADME, organism-based; set-up: dose 10 mg/kg, route oral; conditions: in vivo
Homo sapiens = species on record: Homo sapiens; assay: Selectivity for human CB2 receptor over CB1 receptor
Cannabinoid receptor 1 = Cannabinoid receptor 1 (Homo sapiens, UniProt P21554); assay: Displacement of [3H]CP-55940 form human CB1 receptor expressed in CHO cells; assay type: cell-based
Cannabinoid receptor 2 [9] = molecular target: T1, Cannabinoid receptor 2; assay: Displacement of [3H]CP-55940 form human CB2 receptor expressed in CHO cells at 100 nM; assay type: cell-based
[10] = Cmax in rat at 30 mg/kg, po; assay type: ADME, organism-based; set-up: dose 30 mg/kg, route oral; conditions: in vivo
[11] = Half life in rat at 30 mg/kg, po; assay type: ADME, organism-based; set-up: dose 30 mg/kg, route oral; conditions: in vivo
[12] = Half life in rat at 3 mg/kg, po; assay type: ADME, organism-based; set-up: dose 3 mg/kg, route oral; conditions: in vivo
[13] = AUC (0 to 24 hrs) in rat at 3 mg/kg, po; assay type: ADME, organism-based; set-up: time < 24 hr, dose 3 mg/kg, route oral; conditions: plasma
[14] = Cmax in rat at 3 mg/kg, po; assay type: ADME, organism-based; set-up: dose 3 mg/kg, route oral; conditions: in vivo
[15] = Tmax in rat at 30 mg/kg, po; assay type: ADME, organism-based; set-up: dose 30 mg/kg, route oral; conditions: in vivo
[16] = AUC (0 to 24 hrs) in rat at 30 mg/kg, po; assay type: ADME, organism-based; set-up: time < 24 hr, dose 30 mg/kg, route oral; conditions: plasma
[17] = Oral bioavailability in rat at 3 mg/kg, po; assay type: ADME, organism-based; conditions: in vivo
[18] = Tmax in rat at 3 mg/kg, po; assay type: ADME, organism-based; set-up: dose 3 mg/kg, route oral; conditions: in vivo

T1 sequence (P34972 whole entry): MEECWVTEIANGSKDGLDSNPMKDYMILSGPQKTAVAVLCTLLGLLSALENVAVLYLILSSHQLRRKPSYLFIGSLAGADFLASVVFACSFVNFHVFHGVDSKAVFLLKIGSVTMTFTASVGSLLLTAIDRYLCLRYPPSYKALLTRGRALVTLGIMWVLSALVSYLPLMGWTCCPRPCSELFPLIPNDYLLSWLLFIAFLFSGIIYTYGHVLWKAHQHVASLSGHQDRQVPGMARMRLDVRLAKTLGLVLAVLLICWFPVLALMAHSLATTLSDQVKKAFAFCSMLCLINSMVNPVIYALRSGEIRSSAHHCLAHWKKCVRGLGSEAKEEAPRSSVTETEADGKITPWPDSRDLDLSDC
Cannabinoid receptor 1, sequence (P21554 whole entry): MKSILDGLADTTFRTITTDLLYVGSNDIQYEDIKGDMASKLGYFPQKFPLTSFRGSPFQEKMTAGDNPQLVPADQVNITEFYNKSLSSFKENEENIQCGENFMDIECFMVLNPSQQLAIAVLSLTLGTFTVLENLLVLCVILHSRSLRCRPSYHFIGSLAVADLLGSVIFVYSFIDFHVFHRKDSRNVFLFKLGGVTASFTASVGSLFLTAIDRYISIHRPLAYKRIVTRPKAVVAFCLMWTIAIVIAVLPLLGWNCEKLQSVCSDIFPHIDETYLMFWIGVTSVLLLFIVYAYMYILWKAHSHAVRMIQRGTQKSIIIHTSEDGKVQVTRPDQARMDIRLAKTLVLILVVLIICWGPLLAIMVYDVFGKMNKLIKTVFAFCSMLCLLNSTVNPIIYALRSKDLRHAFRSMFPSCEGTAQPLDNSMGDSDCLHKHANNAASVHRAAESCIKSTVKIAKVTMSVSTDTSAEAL

Q: With Cc1cccc(C(=O)/N=c2\sc(C(C)(C)C)c(C)n2CC2CC2)c1 as the compound, how does the pIC50 (Cannabinoid receptor 2 [1]) read?
A: 7.66

Q: With Cc1c(C(C)(C)C)s/c(=N\C(=O)c2cccc(C(F)(F)F)c2Cl)n1CC1CC1 as the compound, how does the pIC50 (Cannabinoid receptor 2 [1]) read?
A: 9.39

Q: With COc1ccc(C(F)(F)F)cc1C(=O)/N=c1\sc(C(C)(C)C)c(C)n1CC1CC1 as the compound, how does the remaining at 0.25 h [2] read?
A: 85%

Q: What about the Emax (Cannabinoid receptor 2 [3]) of the same compound?
A: 100%

Q: And the Tmax [4]?
A: 1 h

Q: What about the Cmax [5] of the same compound?
A: 0.148 µg/mL

Q: What about the AUC(0-t) at 24 h [6] of the same compound?
A: 1.12 µg·h/mL

Q: What about the pIC50 (Cannabinoid receptor 2 [1]) of the same compound?
A: 8.92

Q: And the pEC50 (Cannabinoid receptor 2 [7])?
A: 9.21

Q: And the half-life [8]?
A: 4.07 h

Q: What about the Ratio IC50 (Homo sapiens) of the same compound?
A: 1600

Q: What about the pIC50 (Cannabinoid receptor 1) of the same compound?
A: 5.72

Q: Which remaining at 0.25 h [2] does the source give for Cc1c(C(C)(C)C)s/c(=N\C(=O)c2cccc(N(C)C)c2)n1CC1CC1 here?
A: 44%

Q: What about the pIC50 (Cannabinoid receptor 2 [1]) of the same compound?
A: 7.77

Q: Which inhibition (Cannabinoid receptor 2 [9]) does the source give for Cc1c(C(C)(C)C)s/c(=N\C(=O)c2ccc(C(F)(F)F)cc2)n1CC1CC1 here?
A: 24%

Q: With Cc1c(C(C)(C)C)s/c(=N\C(=O)c2cccc(Br)c2)n1CC1CC1 as the compound, how does the Emax (Cannabinoid receptor 2 [3]) read?
A: 96%

Q: What about the pIC50 (Cannabinoid receptor 2 [1]) of the same compound?
A: 8.92

Q: What about the pEC50 (Cannabinoid receptor 2 [7]) of the same compound?
A: 9.52

Q: And the pIC50 (Cannabinoid receptor 1)?
A: 7.28

Q: Which Emax (Cannabinoid receptor 2 [3]) does the source give for Cc1c(C(C)(C)C)s/c(=N\C(=O)c2cccc(OC(F)(F)F)c2)n1CC1CC1 here?
A: 72%

Q: What about the pIC50 (Cannabinoid receptor 2 [1]) of the same compound?
A: 8.24

Q: What about the pEC50 (Cannabinoid receptor 2 [7]) of the same compound?
A: 8.12

Q: What about the pIC50 (Cannabinoid receptor 1) of the same compound?
A: 5.96

Q: Which Emax (Cannabinoid receptor 2 [3]) does the source give for Cc1c(C(C)(C)C)s/c(=N\C(=O)c2cc(C(F)(F)F)ccc2F)n1CC1CC1 here?
A: 85%

Q: What about the pEC50 (Cannabinoid receptor 2 [7]) of the same compound?
A: 8.82

Q: What about the Ratio IC50 (Homo sapiens) of the same compound?
A: 440

Q: What about the pIC50 (Cannabinoid receptor 1) of the same compound?
A: 5.82

Q: For Cc1c(C(C)(C)C)s/c(=N\C(=O)c2cccc(C(F)(F)F)c2)n1CC1CC1, which Cmax [10] is on record?
A: 0.498 µg/mL

Q: And the Tmax [4]?
A: 2 h

Q: And the Cmax [5]?
A: 0.223 µg/mL

Q: And the AUC(0-t) at 24 h [6]?
A: 2.05 µg·h/mL

Q: And the half-life [11]?
A: 4.7 h

Q: What about the half-life [12] of the same compound?
A: 4.8 h

Q: What about the AUC(0-t) at 24 h [13] of the same compound?
A: 0.326 µg·h/mL

Q: What about the pIC50 (Cannabinoid receptor 2 [1]) of the same compound?
A: 7.89

Q: And the pEC50 (Cannabinoid receptor 2 [7])?
A: 8.00

Q: What about the Cmax [14] of the same compound?
A: 0.0431 µg/mL

Q: And the Tmax [15]?
A: 2.67 h

Q: What about the half-life [8] of the same compound?
A: 4.96 h

Q: And the AUC(0-t) at 24 h [16]?
A: 4.24 µg·h/mL

Q: What about the bioavailability [17] of the same compound?
A: 52%

Q: And the Tmax [18]?
A: 1.67 h

Q: What about the Ratio IC50 (Homo sapiens) of the same compound?
A: 270

Q: What about the pIC50 (Cannabinoid receptor 1) of the same compound?
A: 5.46

Q: With CCCn1c(C)c(C(C)(C)C)s/c1=N\C(=O)c1cccc(C(F)(F)F)c1 as the compound, how does the pIC50 (Cannabinoid receptor 2 [1]) read?
A: 7.34

Q: With COc1cccc(C(=O)/N=c2\sc(C(C)(C)C)c(C)n2CC2CC2)c1 as the compound, how does the pIC50 (Cannabinoid receptor 2 [1]) read?
A: 7.62

Q: With Cc1s/c(=N\C(=O)c2cccc(C(F)(F)F)c2)n(CC2CC2)c1C as the compound, how does the pIC50 (Cannabinoid receptor 2 [1]) read?
A: 7.60

Q: With CCOC(=O)c1s/c(=N\C(=O)c2cccc(C(F)(F)F)c2)n(CC2CC2)c1C as the compound, how does the pIC50 (Cannabinoid receptor 2 [1]) read?
A: 6.96

Q: Which inhibition (Cannabinoid receptor 2 [9]) does the source give for Cc1c(C(C)(C)C)s/c(=N\C(=O)c2cc(C(F)(F)F)cc(C(F)(F)F)c2)n1CC1CC1 here?
A: 10%

Q: For CCOCCn1c(C)c(C(C)(C)C)s/c1=N\C(=O)c1cccc(C(F)(F)F)c1, which Emax (Cannabinoid receptor 2 [3]) is on record?
A: 45%

Q: And the pEC50 (Cannabinoid receptor 2 [7])?
A: 8.70

Q: What about the pIC50 (Cannabinoid receptor 1) of the same compound?
A: 6.16

Q: With Cc1c(C(C)(C)C)s/c(=N\C(=O)c2ccc(Cl)c(C(F)(F)F)c2)n1CC1CC1 as the compound, how does the pIC50 (Cannabinoid receptor 2 [1]) read?
A: 6.64

Q: Which results are given for Cc1ccc(C(F)(F)F)cc1C(=O)/N=c1\sc(C(C)(C)C)c(C)n1CC1CC1?
A: Emax (Cannabinoid receptor 2 [3]): 99%; pIC50 (Cannabinoid receptor 2 [1]): 8.68; pEC50 (Cannabinoid receptor 2 [7]): 8.57; Ratio IC50 (Homo sapiens): 570; pIC50 (Cannabinoid receptor 1): 5.92

Q: With Cc1c(C(=O)N(C)C)s/c(=N\C(=O)c2cccc(C(F)(F)F)c2)n1CC1CC1 as the compound, how does the pIC50 (Cannabinoid receptor 2 [1]) read?
A: 6.00

Q: With Cc1c(C(C)(C)C)s/c(=N\C(=O)c2ccccc2C(F)(F)F)n1CC1CC1 as the compound, how does the pIC50 (Cannabinoid receptor 1) read?
A: 6.85

Q: Which results are given for Cc1c(C(C)(C)C)s/c(=N\C(=O)c2ccccc2)n1CC1CC1?
A: Emax (Cannabinoid receptor 2 [3]): 100%; pIC50 (Cannabinoid receptor 2 [1]): 6.59; pEC50 (Cannabinoid receptor 2 [7]): 7.07

Q: With Cc1c(C(C)(C)C)s/c(=N\C(=O)c2cccc(Cl)c2)n1CC1CC1 as the compound, how does the pIC50 (Cannabinoid receptor 2 [1]) read?
A: 7.70

Q: For Cc1c(C(C)(C)C)s/c(=N\C(=O)c2cc(C(F)(F)F)ccc2N(C)C)n1CC1CC1, which Emax (Cannabinoid receptor 2 [3]) is on record?
A: 89%

Q: What about the pIC50 (Cannabinoid receptor 2 [1]) of the same compound?
A: 8.03

Q: What about the pEC50 (Cannabinoid receptor 2 [7]) of the same compound?
A: 8.14

Q: And the Ratio IC50 (Homo sapiens)?
A: > 1000

Q: What about the pIC50 (Cannabinoid receptor 1) of the same compound?
A: < 5.00

Q: For Cc1c(C(C)(C)C)s/c(=N\C(=O)c2cccc(F)c2)n1CC1CC1, which inhibition (Cannabinoid receptor 2 [9]) is on record?
A: 44%

Q: With Cc1c(C(C)(C)C)s/c(=N\C(=O)c2cc(C(F)(F)F)ccc2Cl)n1CC1CC1 as the compound, how does the Emax (Cannabinoid receptor 2 [3]) read?
A: 95%

Q: And the pIC50 (Cannabinoid receptor 2 [1])?
A: 8.68

Q: What about the pEC50 (Cannabinoid receptor 2 [7]) of the same compound?
A: 8.40

Q: What about the pIC50 (Cannabinoid receptor 1) of the same compound?
A: 6.08

Q: With CCn1c(C)c(C(C)(C)C)s/c1=N\C(=O)c1cccc(C(F)(F)F)c1 as the compound, how does the pIC50 (Cannabinoid receptor 2 [1]) read?
A: 7.13

Q: With Cc1c(C(C)C)s/c(=N\C(=O)c2cccc(C(F)(F)F)c2)n1CC1CC1 as the compound, how does the pIC50 (Cannabinoid receptor 2 [1]) read?
A: 7.54

Q: For COCCn1c(C)c(C(C)(C)C)s/c1=N\C(=O)c1cccc(C(F)(F)F)c1, which Emax (Cannabinoid receptor 2 [3]) is on record?
A: 59%

Q: And the pIC50 (Cannabinoid receptor 2 [1])?
A: 8.00

Q: What about the pEC50 (Cannabinoid receptor 2 [7]) of the same compound?
A: 8.25

Q: And the pIC50 (Cannabinoid receptor 1)?
A: 5.39

Q: With Cc1c(C(C)(C)C)s/c(=N\C(=O)c2cccc(C(F)(F)F)c2)n1C as the compound, how does the pIC50 (Cannabinoid receptor 2 [1]) read?
A: 6.66
